Laboratory results taken from PMC11725127 (Acta Pharmaceutica Sinica. B, 2024).
pIC50: −log10 of the molar value.

Assays:
[1] = biological target: ubiquitin-specific protease 2 (USP2) (Homo sapiens, UniProt O75604, C284S); assay: thermal stability shift; format: cell-based
[2] = biological target: USP7 (Homo sapiens, UniProt Q93009); assay: in vitro gel-based GST-UBA52 cleavage assay; format: biochemical
[3] = biological target: ubiquitin-specific protease 2 (USP2) (Homo sapiens, UniProt O75604); assay: LC-MS/MS covalent adduct on recombinant USP2; format: biochemical
Sequence of ubiquitin-specific protease 2 (USP2) (Homo sapiens, UniProt O75604) (O75604 259-605): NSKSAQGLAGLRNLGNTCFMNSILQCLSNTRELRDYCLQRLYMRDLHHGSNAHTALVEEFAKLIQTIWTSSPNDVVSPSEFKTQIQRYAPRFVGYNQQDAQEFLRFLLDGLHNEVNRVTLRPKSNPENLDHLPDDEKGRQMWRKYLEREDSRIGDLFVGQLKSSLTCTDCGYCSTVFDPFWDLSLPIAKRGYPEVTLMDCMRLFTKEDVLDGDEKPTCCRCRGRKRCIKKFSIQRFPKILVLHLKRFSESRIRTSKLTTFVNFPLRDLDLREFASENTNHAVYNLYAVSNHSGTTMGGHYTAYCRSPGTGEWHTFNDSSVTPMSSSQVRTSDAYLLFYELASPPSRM

Sequence of ubiquitin-specific protease 2 (USP2) (Homo sapiens, UniProt O75604, C284S) (O75604 whole entry C284S): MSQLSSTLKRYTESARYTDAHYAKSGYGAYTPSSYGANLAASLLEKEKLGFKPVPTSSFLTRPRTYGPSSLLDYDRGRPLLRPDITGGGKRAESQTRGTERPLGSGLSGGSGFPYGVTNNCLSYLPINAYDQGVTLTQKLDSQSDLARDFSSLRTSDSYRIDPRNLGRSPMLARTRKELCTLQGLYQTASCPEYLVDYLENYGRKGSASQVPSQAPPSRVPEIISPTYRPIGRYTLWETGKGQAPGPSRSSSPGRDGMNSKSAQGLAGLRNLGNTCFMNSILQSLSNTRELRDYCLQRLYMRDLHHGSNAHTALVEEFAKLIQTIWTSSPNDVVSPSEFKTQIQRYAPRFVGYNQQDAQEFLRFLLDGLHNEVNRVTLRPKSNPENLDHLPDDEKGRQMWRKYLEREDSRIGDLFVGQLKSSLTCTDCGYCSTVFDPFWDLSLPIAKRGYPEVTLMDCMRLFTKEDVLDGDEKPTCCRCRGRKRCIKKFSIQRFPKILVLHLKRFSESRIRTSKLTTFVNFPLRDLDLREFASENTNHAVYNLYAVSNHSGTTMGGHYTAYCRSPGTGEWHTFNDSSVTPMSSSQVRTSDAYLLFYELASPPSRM
Sequence of USP7 (Q93009 whole entry): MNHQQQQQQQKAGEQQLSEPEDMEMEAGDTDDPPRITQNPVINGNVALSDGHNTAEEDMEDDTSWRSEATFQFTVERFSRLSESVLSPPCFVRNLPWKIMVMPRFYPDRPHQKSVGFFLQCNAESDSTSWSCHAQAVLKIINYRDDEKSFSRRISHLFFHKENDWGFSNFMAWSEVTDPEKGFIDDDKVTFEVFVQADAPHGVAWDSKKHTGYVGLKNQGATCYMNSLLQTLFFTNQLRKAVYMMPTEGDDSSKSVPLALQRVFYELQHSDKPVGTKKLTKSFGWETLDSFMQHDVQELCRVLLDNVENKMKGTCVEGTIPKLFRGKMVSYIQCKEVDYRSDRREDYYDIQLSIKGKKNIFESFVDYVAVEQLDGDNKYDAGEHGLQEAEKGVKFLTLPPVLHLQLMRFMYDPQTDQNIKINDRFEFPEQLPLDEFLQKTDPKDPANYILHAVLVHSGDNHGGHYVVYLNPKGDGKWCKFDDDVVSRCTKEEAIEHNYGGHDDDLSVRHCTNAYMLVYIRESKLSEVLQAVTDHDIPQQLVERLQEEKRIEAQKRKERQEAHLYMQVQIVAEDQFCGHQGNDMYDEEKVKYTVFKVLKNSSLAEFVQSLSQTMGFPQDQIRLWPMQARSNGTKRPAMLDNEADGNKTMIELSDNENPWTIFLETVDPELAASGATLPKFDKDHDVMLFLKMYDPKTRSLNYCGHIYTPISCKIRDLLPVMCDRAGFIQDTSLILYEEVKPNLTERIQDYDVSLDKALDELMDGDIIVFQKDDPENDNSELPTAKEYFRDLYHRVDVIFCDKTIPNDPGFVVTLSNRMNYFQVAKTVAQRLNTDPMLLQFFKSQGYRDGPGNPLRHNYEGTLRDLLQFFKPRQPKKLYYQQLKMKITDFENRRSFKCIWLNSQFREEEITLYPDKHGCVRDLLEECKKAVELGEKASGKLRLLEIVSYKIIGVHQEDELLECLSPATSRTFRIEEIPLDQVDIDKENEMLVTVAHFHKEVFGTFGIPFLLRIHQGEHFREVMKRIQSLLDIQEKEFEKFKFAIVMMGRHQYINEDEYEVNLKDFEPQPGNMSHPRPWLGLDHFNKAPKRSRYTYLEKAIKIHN

CC(C)=CCC[C@]1(C)C=Cc2c(O)c3c(c(CC=C(C)C)c2O1)O[C@]12C(=C[C@@H]4C[C@H]1C(C)(C)O[C@@]2(C/C=C(/C)C(=O)O)C4=O)C3=O [GA, gambogic acid]
thermal stability shift (Fig. S15) [1]: the thermal stability of USP2^Cys284S could also be altered by GA | pIC50 [2]: 4.77 | pIC50 [3]: 5.74
